Experimental data published in US20260159536A1, “AKR1C3-ACTIVATED DNA ALKYLATING AGENT, AND MEDICAL APPLICATION THEREOF” (ASCENTAWITS PHARMACEUTICALS, LTD., priority 2021, published 2026).

System: human liver cancer HepG2 cells
Assay: In vivo pharmacodynamics, liver cancer HepG2 CDX model
Parameters: species or system BALB/c nude mice
Details: for Tumor volume (x ± S): in mm³ (unit assumed)
[1] = 2.5 mg/kg, QDx5, 2 days off, 2 weeks off, QDx5, i.p., Day 53
[2] = 5 mg/kg, QDx5, 2 days off, 2 weeks off, QDx5, i.p., Day 53
[3] = 5 mg/kg, QWx2, 1 week off, QWx2, i.v., Day 53
[4] = 10 mg/kg, QWx2, 1 week off, QWx2, i.v., Day 53

Procedure: Experiment Instruction: BALB/c nude mice were subcutaneously inoculated with human liver cancer HepG2 cells to establish a subcutaneous transplantation tumor model of human liver cancer. […] The efficacy was evaluated according to the relative tumor inhibition rate TGI (%), and the safety was evaluated according to the change in body weight and the death of the animals.

O=[N+]([O-])c1ccc(C(OP(=O)(N2CC2)N2CC2)C(F)(F)F)cc1Oc1ccc(-c2ccc(F)cc2)c(F)c1 (racemic) [Compound A]
Tumor volume (2.5 mg/kg i.p., Day 31): 405.67 mm^3 | Tumor volume (2.5 mg/kg i.p., Day 36): 392.90 mm^3 | Tumor volume (2.5 mg/kg i.p., Day 39): 342.04 mm^3 | Tumor volume (2.5 mg/kg i.p., Day 42): 399.84 mm^3 | Tumor volume (2.5 mg/kg i.p., Day 46): 417.54 mm^3 | Tumor volume (2.5 mg/kg i.p., Day 49): 456.60 mm^3 | Tumor volume (2.5 mg/kg i.p., Day 53): 417.76 mm^3 | Relative tumor volume (x ± S) [1]: 2.19 ± 0.52 | T/C (%) [1]: 18.46% | TGI (%) [1]: 81.54% | Tumor volume (x ± S) [1]: 417.76 ± 105.16 | euthanasia owing to BWL>20% (5 mg/kg QDx5, 2 days off, 2 weeks off, QDx5, i.p. (Group 7)): one mouse was euthanized | death (5 mg/kg QWx2, 1 week off, QWx2, i.v. (Group 3)): one mouse in this group suffered death | Tumor volume (5 mg/kg i.p., Day 19): 189.64 mm^3 | Tumor volume (5 mg/kg i.p., Day 22): 259.29 mm^3 | Tumor volume (5 mg/kg i.p., Day 24): 280.24 mm^3 | Tumor volume (5 mg/kg i.p., Day 27): 286.22 mm^3 | Tumor volume (5 mg/kg i.p., Day 31): 290.75 mm^3 | Tumor volume (5 mg/kg i.p., Day 36): 293.88 mm^3 | Tumor volume (5 mg/kg i.p., Day 39): 247.49 mm^3 | Tumor volume (5 mg/kg i.p., Day 42): 224.58 mm^3 | Tumor volume (5 mg/kg i.p., Day 46): 215.32 mm^3 | Tumor volume (5 mg/kg i.p., Day 49): 234.89 mm^3 | Tumor volume (5 mg/kg i.p., Day 53): 189.84 mm^3 | Tumor volume (5 mg/kg i.v., Day 19): 191.48 mm^3 | Tumor volume (5 mg/kg i.v., Day 22): 315.19 mm^3 | Tumor volume (5 mg/kg i.v., Day 24): 360.12 mm^3 | Tumor volume (5 mg/kg i.v., Day 27): 390.21 mm^3 | Tumor volume (5 mg/kg i.v., Day 31): 373.82 mm^3 | Tumor volume (5 mg/kg i.v., Day 36): 314.44 mm^3 | Tumor volume (5 mg/kg i.v., Day 39): 283.08 mm^3 | Tumor volume (5 mg/kg i.v., Day 42): 276.88 mm^3 | Tumor volume (5 mg/kg i.v., Day 46): 233.11 mm^3 | Tumor volume (5 mg/kg i.v., Day 49): 145.58 mm^3 | Tumor volume (5 mg/kg i.v., Day 53): 136.44 mm^3 | Relative tumor volume (x ± S) [2]: 0.99 ± 0.38 | T/C (%) [2]: 8.33% | TGI (%) [2]: 91.67% | Tumor volume (x ± S) [2]: 189.84 ± 72.81 | Relative tumor volume (x ± S) [3]: 0.70 ± 0.34 | T/C (%) [3]: 5.92% | TGI (%) [3]: 94.08% | Tumor volume (x ± S) [3]: 136.44 ± 66.47 | weight loss or death (10 mg/kg i.v. (Group 4) and 2.5 mg/kg i.p. (Group 6)): did not cause severe weight loss or death | Tumor volume (10 mg/kg i.v., Day 19): 191.97 mm^3 | Tumor volume (10 mg/kg i.v., Day 22): 314.32 mm^3 | Tumor volume (10 mg/kg i.v., Day 24): 375.81 mm^3 | Tumor volume (10 mg/kg i.v., Day 27): 427.75 mm^3 | Tumor volume (10 mg/kg i.v., Day 31): 386.68 mm^3 | Tumor volume (10 mg/kg i.v., Day 36): 347.85 mm^3 | Tumor volume (10 mg/kg i.v., Day 39): 312.31 mm^3 | Tumor volume (10 mg/kg i.v., Day 42): 252.78 mm^3 | Tumor volume (10 mg/kg i.v., Day 46): 197.45 mm^3 | Tumor volume (10 mg/kg i.v., Day 49): 142.21 mm^3 | Tumor volume (10 mg/kg i.v., Day 53): 88.20 mm^3 | Relative tumor volume (x ± S) [4]: 0.45 ± 0.15 | T/C (%) [4]: 3.83% | TGI (%) [4]: 96.17% | Tumor volume (x ± S) [4]: 88.20 ± 29.95 | complete cure (one mouse in each of Groups 3, 4, 7): completely cured
